# Reference: patent US20250257060A1, “OXADIAZOLE COMPOUND, PHARMACEUTICAL COMPOSITION COMPRISING SAME, AND USE THEREOF” (SUZHOU GENHOUSE BIO CO., LTD., priority 2022, published 2025)
# Where two headings read alike, the source gives them in different places.
# How the values were obtained:
# HDAC6 = HDAC6 (Homo sapiens (Human), UniProt Q9UBN7); experiment: HDAC6 enzymatic activity assay; assay type: biochemical
# Description: The inhibitory activity of the compounds of the present application against HDAC6 was evaluated by an enzymatic activity assay. HDAC6 (Abcam), test compounds, and a 20 µM substrate solution (Ac-GAK(Ac)-AMC) were each added to a 384-well plate, and the plate was incubated at 37° C. for 30 min. […] and […] were added, and the plate was incubated at room temperature for 15 min. […] IC50 was obtained by fitting using GraphPadPrism 7.0 software.
# [1] = Brain-to-blood drug concentration ratio of mice; assay type: in vivo; settings: mouse, 5 mg/kg PO, 2 h; for Kp at 2 h: brain/plasma
# Description: On the day of administration, mice were weighed for actual body weight and the administration volume was calculated. In each group of 9 mice, the compound was administered by single intravenous (IV) injection or intragastric (PO) administration. Whole blood samples were collected via the orbit at prescribed time points. After blood sample collection, the samples were immediately transferred to labeled commercial sample tubes containing K2-EDTA (0.85-1.15 mg), followed by centrifugation (3200×g, 4° C., 10 min) and plasma collection. The plasma was transferred to a pre-cooled centrifuge tube, frozen in dry ice, and stored in an ultra-low temperature freezer at −60° C. or lower until the LC-MS/MS analysis. 20 μL of a plasma sample or brain tissue homogenate was taken and 80 μL of an internal standard solution (50 ng/mL solution of propafenone in acetonitrile) was added. The plate was sealed with a film sealer at 165° C., shaken on a micro oscillator (maximum vibration speed) for 10 min, and centrifuged at 4000 rpm for 20 min using a low-speed benchtop centrifuge, 10 μL of supernatant was transferred and 90 μL of acetonitrile was added. The mixture was vortexed and mixed well, and then the plate was sealed with the film sealer at 165° C. After the mixture was vortexed and mixed well, 1 μL of supernatant was taken for LC-MS/MS analysis. Plasma drug concentration data for the compounds were processed in a non-compartmental model using WinNonlin Version 6.3 (Pharsight, Mountain View, CA) pharmacokinetic software. The relevant pharmacokinetic parameters were calculated by a linear logarithmic trapezoid method.
# Data processing: brain-to-blood drug concentration ratio of mice at the same time point=drug concentration in brain tissue/drug concentration in plasma
# [2] = Pharmacokinetic test in mice (IV and PO); assay type: in vivo, BALB/c mice; settings: for MRT inf: read-out: MRT(0-∞)
# Description: In this example, the pharmacokinetic behavior of the compounds after intravenous injection (IV) and intragastric (PO) administration in BALB/c mice was tested.
# On the day of administration, mice were weighed for actual body weight and the administration volume was calculated. Each compound was tested in two groups with 3 mice in each group, one group administered by single intravenous injection and the other group of mice by single intragastric administration. Whole blood samples were collected via the orbit at prescribed time points (0.25 h, 0.5 h, 1 h, 2 h, 4 h, 8 h, and 24 h after administration). After blood sample collection, the samples were immediately transferred to labeled commercial sample tubes containing K2-EDTA (0.85-1.15 mg), followed by centrifugation (3200×g, 4° C., 10 min) and plasma collection. The plasma was transferred to a pre-cooled centrifuge tube, frozen in dry ice, and stored in an ultra-low temperature freezer at −60° C. or lower until the LC-MS/MS analysis.
# Plasma concentrations were determined by a LC-MS/MS method. Plasma drug concentration data for compounds 1 and 2 were processed in a non-compartmental model using WinNonlin Version 6.3 (Pharsight, Mountain View, CA) pharmacokinetic software. The relevant pharmacokinetic parameters were calculated by a linear logarithmic trapezoid method.
# [3] = brain, read-out: Brain drug concentration
# [4] = plasma, read-out: Blood drug concentration
# [5] = BALB/c, mouse, plasma, mice, IV 1 mg/kg
# [6] = BALB/c, mouse, plasma, mice, PO 5 mg/kg
# Chain of HDAC6 (Q9UBN7 whole entry): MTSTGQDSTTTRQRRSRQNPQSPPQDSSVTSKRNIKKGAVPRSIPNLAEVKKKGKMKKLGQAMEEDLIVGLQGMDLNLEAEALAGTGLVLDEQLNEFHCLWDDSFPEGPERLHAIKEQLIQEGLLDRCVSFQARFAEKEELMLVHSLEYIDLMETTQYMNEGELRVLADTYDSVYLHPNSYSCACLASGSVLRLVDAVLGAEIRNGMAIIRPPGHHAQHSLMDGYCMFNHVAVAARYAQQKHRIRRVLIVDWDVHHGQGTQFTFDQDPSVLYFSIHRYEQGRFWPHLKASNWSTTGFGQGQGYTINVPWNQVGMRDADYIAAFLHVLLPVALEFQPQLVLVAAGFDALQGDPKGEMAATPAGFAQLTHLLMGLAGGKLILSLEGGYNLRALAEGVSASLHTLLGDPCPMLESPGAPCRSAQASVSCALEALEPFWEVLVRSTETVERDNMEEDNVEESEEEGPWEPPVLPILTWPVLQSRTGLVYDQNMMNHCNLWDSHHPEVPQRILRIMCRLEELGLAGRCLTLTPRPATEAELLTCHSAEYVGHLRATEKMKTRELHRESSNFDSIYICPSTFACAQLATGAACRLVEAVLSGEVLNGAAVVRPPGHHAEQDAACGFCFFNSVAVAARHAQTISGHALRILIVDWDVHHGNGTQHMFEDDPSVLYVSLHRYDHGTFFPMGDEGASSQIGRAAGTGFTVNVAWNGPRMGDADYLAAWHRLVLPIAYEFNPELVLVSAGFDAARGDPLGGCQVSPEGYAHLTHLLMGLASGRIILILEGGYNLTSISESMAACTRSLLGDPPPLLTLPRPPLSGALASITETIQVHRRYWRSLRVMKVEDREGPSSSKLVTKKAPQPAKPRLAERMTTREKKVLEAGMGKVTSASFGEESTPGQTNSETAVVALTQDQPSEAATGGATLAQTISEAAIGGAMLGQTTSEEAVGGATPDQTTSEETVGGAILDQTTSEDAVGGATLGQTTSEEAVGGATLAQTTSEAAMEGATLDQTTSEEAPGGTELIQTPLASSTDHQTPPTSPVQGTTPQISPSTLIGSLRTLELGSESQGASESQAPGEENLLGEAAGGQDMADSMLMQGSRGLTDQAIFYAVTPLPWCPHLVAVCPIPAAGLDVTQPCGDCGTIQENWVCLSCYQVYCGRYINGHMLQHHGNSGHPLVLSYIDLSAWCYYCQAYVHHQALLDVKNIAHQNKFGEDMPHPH
smiles,measurement,setting,value
O=S(=O)(N[C@@H]1CCCC[C@H]1N1Cc2ccc(-c3nnc(C(F)F)o3)cc2S1(=O)=O)C1CC1 [Compound 4],IC50,HDAC6,154 nM
same,concentration at 2 h,[1]; [3],190 ng/mL
same,Kp at 2 h,[1],0.08
same,concentration at 2 h,[1]; [4],2260 ng/mL
CN(C)C(=O)N[C@@H]1CCCC[C@H]1N1Cc2ccc(-c3nnc(C(F)F)o3)cc2S1(=O)=O [Compound 93],Cmax,"[2]; BALB/c, mouse, plasma, po, 5 mg/kg, read-out: C0/Cmax",3410 nM
same,AUC(0-inf),[2]; [5],1.08 µM·h
same,AUC(0-t),[2]; [5],1.07 µM·h
same,Cmax,"[2]; BALB/c, mouse, plasma, mice, IV 1 mg/kg (C0)",2110 nM
same,MRT inf,[2]; [5],36 min
same,Vd,"[2]; BALB/c, mouse, plasma, mice, IV 1 mg/kg, read-out: Vz",1.9 L/kg
same,AUC(0-inf),[2]; [6],4.57 µM·h
same,AUC(0-t),[2]; [6],4.56 µM·h
same,Tmax,[2]; [6],30 min
same,MRT inf,[2]; [6],72 min
same,CLz,"[2]; mice, IV 1 mg/kg",33.3 mL/min/kg
same,t½z,"[2]; mice, IV 1 mg/kg",42 min
same,F,"[2]; mice, PO 5 mg/kg",84.4%
same,t½z,"[2]; mice, PO 5 mg/kg",42 min
same,IC50,HDAC6,133 nM
same,concentration at 2 h,[1]; [3],27 ng/mL
same,Kp at 2 h,[1],0.11
same,concentration at 2 h,[1]; [4],252 ng/mL
"O=S1(=O)c2cc(-c3nnc(C(F)F)o3)ccc2CN1[C@@H](c1ccc(F)cn1)[C@H](O)c1ccc(F)cn1 (single isomer, unassigned) [Compound 88j-B]",IC50,HDAC6,668 nM
O=S1(=O)c2cc(-c3nnc(C(F)F)o3)ccc2CN1[C@@H](c1ncccn1)[C@@H](O)c1ncccn1 [Compound 103j-C],IC50,HDAC6,226 nM
Cn1cc(-c2ccccc2N2Cc3ccc(-c4nnc(C(F)F)o4)cc3S2(=O)=O)cn1 [Compound 72],IC50,HDAC6,399 nM
